Measurements taken from EP4741392A1, “1H-PYRAZOLO[4,3-C]PYRIDINE COMPOUND, AND COMPOSITION THEREOF AND USE THEREOF” (Shenzhen TargetRx Co., Ltd., priority 2023, dated 2025).

Columns and labels:
Assay in all cases: Kinase activity inhibition assay (HTRF TK Kit), selectivity
Format in all cases: biochemical
ITK = target: T1, ITK (Homo sapiens, UniProt Q08881)
T1 construct: purchased Carna 08-181
T1 sequence (Q08881 1-620): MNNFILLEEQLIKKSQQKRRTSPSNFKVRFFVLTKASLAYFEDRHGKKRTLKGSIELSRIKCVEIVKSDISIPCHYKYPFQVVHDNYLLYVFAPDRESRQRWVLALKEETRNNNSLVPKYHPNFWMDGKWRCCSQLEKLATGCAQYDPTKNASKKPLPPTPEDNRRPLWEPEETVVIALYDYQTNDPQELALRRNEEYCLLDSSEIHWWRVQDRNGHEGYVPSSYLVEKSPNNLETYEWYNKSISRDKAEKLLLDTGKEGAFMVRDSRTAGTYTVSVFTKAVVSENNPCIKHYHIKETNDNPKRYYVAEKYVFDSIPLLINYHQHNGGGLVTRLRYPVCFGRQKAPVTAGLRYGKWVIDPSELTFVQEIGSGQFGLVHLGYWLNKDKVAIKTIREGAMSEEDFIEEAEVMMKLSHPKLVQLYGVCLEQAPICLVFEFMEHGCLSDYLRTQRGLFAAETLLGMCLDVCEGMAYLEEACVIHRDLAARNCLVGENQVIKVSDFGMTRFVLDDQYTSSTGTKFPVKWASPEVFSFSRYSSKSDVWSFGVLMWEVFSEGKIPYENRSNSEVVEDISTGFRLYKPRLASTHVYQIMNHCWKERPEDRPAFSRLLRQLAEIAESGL
Excerpt: (§1) In this assay, the HTRF TK Kit (Catalog No. 62TK0PEC) provided by Cisbio was used to detect the inhibitory activity of compounds on BTK kinase, BTK T474I kinase and BTK C481 S kinase and the selectivity of compounds relative to EGFR, ITK and TEC kinases.
(§2) Reagents and consumables: BTK kinase (Invitrogen, Catalog No. PV3587), BTK C481S (Carna, Product No. 08-547), BTK T474I(SignalChem Product No. B10-12HH), ITK (Cama, Product No. 08-181), EGFR (Cama, Product No. 08-115), TEC (Carna, Product No. 08-182), HTRF-TK kit (Cisbio, Product No. 62TK0PEC), MgCl2 (Sigma, Product No. M1028), MnCl2 (Sigma, Product No. M1787), DTT (Sigma, Product No. D0632), ATP (Sigma, Product No. A7699-1g), DMSO (Sigma, Product No. D2650), 384-well plate (PE, Product No. 6008280).
(§3) The entire operation steps were carried out on ice, and the total reaction volume was 10µL. A compound (4µL), substrate and ATP (4µL), and kinase (2µL) were added in sequence to a 384-well plate, and the plate was shaken for 30 seconds. The mixture was reacted at room temperature for an appropriate time, and then the detection reagent was added. The resulting mixture was reacted at room temperature for 1 hour, and then the plate was assayed with a microplate reader. The specific steps were as follows: • a) a 1 × kinase buffer solution required for the kinase assay was calculated according to the amount of the test compound, and prepared as needed; • b) 2.5 × working concentration of a compound was prepared, 100-fold gradient concentration solutions of a compound were diluted by 40 × to the desired concentration, respectively, mixed well, and added to each well at 4 µL per well; • c) 5 × working concentration of the substrate and ATP were prepared, mixed in a ratio of 1:1 before being added to the 384-well plate, and added to each well at 4 µL per well; • d) 5 × working concentration of a kinase was prepared, 2 µL of which was added to each well; • e) the plate was shaken on a microplate shaker for 30 seconds, sealed with a sealing membrane, and the mixture was reacted at room temperature for an appropriate time; • f) 4 × working concentration of streptavidin XL-665 and TK antibody-cryptate compound were prepared, mixed in a ratio of 1:1 before being added to the 384-well plate, and added to each well at 10 µL per well; • g) the mixture was reacted at room temperature for 1 hour, and then the plate was read; • h) the wells with only substrate, ATP and 1% DMSO added but no kinase were blank control wells, and the wells with only substrate, ATP, 1% DMSO and kinase were positive control wells.
(§4) Readings: The values of 620 nm (cryptate) and 665 nm (XL665) were read with a BioTek Synerg Neo2 microplate reader, the ratio of 665/620 for each well was calculated, and the data were exported.
(§5) Data analysis: IC50 was calculated using GraphPad Prism 7.0 software.
(§6) The IC50 (half-maximal inhibitory concentration) of the compound was obtained using the following nonlinear fitting formula: Y = Bottom + (Top−Bottom)/(1+10^(∧)((LogIC50−X)*HillSlope)) [formula] • X: Log value of the compound concentration • Y: Inhibition rate (% inhibition) • Top: Maximum response • Bottom: Baseline response • HillSlope: Slope of the curve
(§7) The formula for calculating kinase inhibition rate (inhibition rate %) was: [formula]

TEC = target: T2, TEC (Homo sapiens, UniProt P42680)
T2 construct: purchased Carna 08-182
T2 sequence (P42680 1-631): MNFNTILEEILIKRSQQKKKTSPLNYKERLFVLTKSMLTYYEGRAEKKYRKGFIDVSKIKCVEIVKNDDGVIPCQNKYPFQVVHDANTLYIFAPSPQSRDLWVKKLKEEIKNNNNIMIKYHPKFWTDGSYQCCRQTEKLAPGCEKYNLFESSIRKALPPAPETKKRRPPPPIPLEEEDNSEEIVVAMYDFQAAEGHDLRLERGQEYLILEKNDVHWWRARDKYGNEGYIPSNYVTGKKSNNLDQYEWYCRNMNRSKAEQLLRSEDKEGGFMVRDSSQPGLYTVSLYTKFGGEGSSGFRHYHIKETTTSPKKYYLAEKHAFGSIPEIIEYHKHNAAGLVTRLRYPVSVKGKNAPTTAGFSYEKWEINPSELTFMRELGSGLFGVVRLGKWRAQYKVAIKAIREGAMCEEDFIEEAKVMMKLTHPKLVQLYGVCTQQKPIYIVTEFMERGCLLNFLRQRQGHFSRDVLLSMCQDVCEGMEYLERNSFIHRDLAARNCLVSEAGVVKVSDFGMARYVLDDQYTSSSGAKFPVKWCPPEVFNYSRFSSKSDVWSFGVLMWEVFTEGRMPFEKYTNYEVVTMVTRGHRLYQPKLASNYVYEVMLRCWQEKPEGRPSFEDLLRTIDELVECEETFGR
Excerpt: as §1, §2, §3, §4, §5, §6, §7

EGFR = target: T3, EGFR (Homo sapiens, UniProt P00533)
T3 construct: purchased Carna 08-115
T3 sequence (P00533 669-1210 limits assumed): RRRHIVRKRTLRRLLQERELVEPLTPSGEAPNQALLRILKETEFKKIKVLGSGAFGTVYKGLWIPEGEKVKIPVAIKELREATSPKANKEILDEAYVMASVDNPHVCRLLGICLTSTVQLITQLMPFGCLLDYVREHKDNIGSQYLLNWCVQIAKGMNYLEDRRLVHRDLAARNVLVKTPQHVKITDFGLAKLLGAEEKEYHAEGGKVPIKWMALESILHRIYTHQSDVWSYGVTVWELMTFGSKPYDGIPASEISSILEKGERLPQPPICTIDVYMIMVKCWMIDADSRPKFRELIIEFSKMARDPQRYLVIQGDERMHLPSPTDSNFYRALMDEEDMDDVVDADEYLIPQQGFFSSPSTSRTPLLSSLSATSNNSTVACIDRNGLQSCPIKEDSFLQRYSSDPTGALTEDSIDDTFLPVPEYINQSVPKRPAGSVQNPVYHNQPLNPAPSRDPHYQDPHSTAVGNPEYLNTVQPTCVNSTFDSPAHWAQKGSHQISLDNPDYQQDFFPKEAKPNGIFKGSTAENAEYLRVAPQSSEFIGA
Excerpt: as §1, §2, §3, §4, §5, §6, §7

| IC50 (ITK) [nM] | IC50 (TEC) [nM] | IC50 (EGFR) [nM] | Compound |
| --- | --- | --- | --- |
| > 500 | > 500 | > 500 | COc1ccc(F)cc1C(=O)NCc1ccc(-c2ncc(-c3cnn(C)c3)c3[nH]nc(N)c23)cc1 [Example 22, N-(4-(3-amino-7-(1-methyl-1H-pyrazol-4-yl)-1H-pyrazolo[4,3-c]pyridin-4-yl)benzyl)-5-fluoro-2-oxybenzamide] |
| > 500 | 5 to 50 | 50 to 500 | COc1ccc(F)cc1C(=O)NCc1ccc(-c2ncc(-c3ccn(C)n3)c3[nH]nc(N)c23)cc1 [Example 23, N-(4-(3-amino-7-(1-methyl-1H-pyrazol-3-yl)-1H-pyrazolo[4,3-c]pyridin-4-yl)benzyl)-5-fluoro-2-methoxybenzamide] |
| > 500 | 50 to 500 | > 500 | COc1ccc(F)cc1C(=O)NCc1ccc(-c2ncc(-c3ccc(C(F)(F)F)cn3)c3[nH]nc(N)c23)cc1 [Example 24, N-(4-(3-amino-7-(5-(trifluoromethyl)pyridin-2-yl)-1H-pyrazolo[4,3-c]pyridin-4-yl)benzyl)-5-fluoro-2-methoxybenzamide] |
| > 500 | 50 to 500 | 50 to 500 | COc1ccc(F)cc1C(=O)NCc1ccc(-c2ncc(-c3ccn(CC(=O)N(C)C)n3)c3[nH]nc(N)c23)cc1 [Example 25, N-(4-(3-amino-7-(1-(2-(dimethylamino)-2-oxoethyl)-1H-pyrazol-3-yl)-1H-pyrazolo[4,3-c]pyridin-4-yl)benzyl)-5-fluoro-2-methoxybenzamide] |
| > 500 | 50 to 500 | 50 to 500 | CNC(=O)Cn1ccc(-c2cnc(-c3ccc(CNC(=O)c4cc(F)ccc4OC)cc3)c3c(N)n[nH]c23)n1 [Example 26, N-(4-(3-amino-7-(1-(2-(methylamino)-2-oxoethyl)-1H-pyrazol-3-yl)-1H-pyrazolo[4,3-c]pyridin-4-yl)benzyl)-5-fluoro-2-methoxybenzamide] |
| 50 to 500 | 5 to 50 | 5 to 50 | COc1ccc(F)cc1C(=O)NCc1ccc(-c2ncc(-c3ccn(CC(F)(F)F)n3)c3[nH]nc(N)c23)cc1 [Example 28, N-(4-(3-amino-7-(1-(2,2,2-trifluoroethyl)-1H-pyrazol-3-yl)-1H-pyrazolo[4,3-c]pyridin-4-yl)benzyl)-5-fluoro-2-methoxybenzamide] |
| > 500 | 50 to 500 | 50 to 500 | COc1ccc(F)cc1C(=O)NCc1ccc(-c2ncc(-c3cn(C)cn3)c3[nH]nc(N)c23)cc1 [Example 30, N-(4-(3-amino-7-(1-methyl-1H-imidazol-4-yl)-1H-pyrazolo[4,3-c]pyridin-4-yl)benzyl)-5-fluoro-2-methoxybenzamide] |
| > 500 | 50 to 500 | 50 to 500 | COc1ccc(F)cc1C(=O)NCc1ccc(-c2ncc(-c3cc[nH]n3)c3[nH]nc(N)c23)cc1 [Example 31, N-(4-(3-amino-7-(1H-pyrazol-3-yl)-1H-pyrazolo[4,3-c]pyridin-4-yl)benzyl)-5-fluoro-2-methoxybenzamide] |
| 50 to 500 | 5 to 50 | 50 to 500 | COc1ccc(F)cc1C(=O)NCc1ccc(-c2ncc(-c3ccc(S(C)(=O)=O)cn3)c3[nH]nc(N)c23)cc1 [Example 35, N-(4-(3-amino-7-(5-(methylsulfonyl)pyridin-2-yl)-1H-pyrazolo[4,3-c]pyridin-4-yl)benzyl)-5-fluoro-2-methoxybenzamide] |
| > 500 | 50 to 500 | 50 to 500 | COc1ccc(F)cc1C(=O)NCc1ccc(-c2ncc(-c3ncc(F)cn3)c3[nH]nc(N)c23)cc1 [Example 36, N-(4-(3-amino-7-(5-fluoropyrimidin-2-yl)-1H-pyrazolo[4,3-c]pyridin-4-yl)benzyl)-5-fluoro-2-methoxybenzamide] |
| > 500 | 5 to 50 | 50 to 500 | COc1ccc(F)cc1C(=O)NCc1ccc(-c2ncc(-c3ccc(C)cn3)c3[nH]nc(N)c23)cc1 [Example 37, N-(4-(3-amino-7-(5-methylpyridin-2-yl)-1H-pyrazolo[4,3-c]pyridin-4-yl)benzyl)-5-fluoro-2-methoxybenzamide] |
